Results from ChEMBL document CHEMBL3046079, “Synthesis, herbicidal activity, and mode of action of IR 5790” (J Agric Food Chem, 2001).
≈ marks a conversion by molar mass, not a printed value.

Experiments:
[1] = Toxicity in po dosed Rattus norvegicus (rat); type: organism-based; settings: in vivo
[2] = tested on: Chenopodium album; test: Post-emergence herbicidal activity against Chenopodium album assessed as injury at 150 g/ha applied at 15 days post-sowing measured after 15 days relative to control; type: functional
[3] = tested on: Zea mays; test: Phytotoxicity against Zea mays (maize) assessed as injury at 50 g/ha applied as post-emergent treatment at 15 days post-sowing measured after 15 days relative to control; type: organism-based; settings: in vivo, other, 360 h
[4] = tested on: Persicaria maculosa; test: Post-emergence herbicidal activity against Persicaria maculosa assessed as injury at 5 g/ha applied at 15 days post-sowing measured after 15 days relative to control; type: functional
[5] = Aqueous solubility of the compound; type: physicochemical; settings: water
[6] = tested on: Alopecurus myosuroides; test: Post-emergence herbicidal activity against Alopecurus myosuroides assessed as injury at 5 g/ha applied at 15 days post-sowing measured after 15 days relative to control; type: functional
[7] = tested on: Capsella bursa-pastoris; test: Pre-emergence herbicidal activity against Capsella bursa-pastoris assessed as injury at 150 g/ha applied at 24 hr post-sowing measured after 28 days relative to control; type: functional
[8] = tested on: Oryza sativa; test: Phytotoxicity against Oryza sativa (rice) assessed as injury at 50 g/ha applied as pre-emergent treatment at 24 hr post-sowing measured after 28 days relative to control; type: organism-based; settings: in vivo, other, 672 h
[9] = tested on: Portulaca oleracea; test: Pre-emergence herbicidal activity against Portulaca oleracea assessed as injury at 150 g/ha applied at 24 hr post-sowing measured after 28 days relative to control; type: functional
[10] = tested on: Calystegia sepium; test: Post-emergence herbicidal activity against Calystegia sepium assessed as injury at 15 g/ha applied at 15 days post-sowing measured after 15 days relative to control; type: functional
[11] = tested on: Oryza sativa; test: Phytotoxicity against Oryza sativa (rice) assessed as injury at 15 g/ha applied as post-emergent treatment at 15 days post-sowing measured after 15 days relative to control; type: organism-based; settings: in vivo, other, 360 h
[12] = tested on: Sorghum bicolor; test: Pre-emergence herbicidal activity against Sorghum bicolor assessed as injury at 150 g/ha applied at 24 hr post-sowing measured after 28 days relative to control; type: functional
[13] = tested on: Abutilon theophrasti; test: Pre-emergence herbicidal activity against Abutilon theophrasti (velvetleaf) assessed as injury at 50 g/ha applied at 24 hr post-sowing measured after 28 days relative to control; type: functional
[14] = tested on: Alopecurus myosuroides; test: Pre-emergence herbicidal activity against Alopecurus myosuroides assessed as injury at 50 g/ha applied at 24 hr post-sowing measured after 28 days relative to control; type: functional
[15] = tested on: Persicaria maculosa; test: Pre-emergence herbicidal activity against Persicaria maculosa assessed as injury at 50 g/ha applied at 24 hr post-sowing measured after 28 days relative to control; type: functional
[16] = tested on: Papaver rhoeas; test: Post-emergence herbicidal activity against Papaver rhoeas assessed as injury at 50 g/ha applied at 15 days post-sowing measured after 15 days relative to control; type: functional
[17] = tested on: Portulaca oleracea; test: Post-emergence herbicidal activity against Portulaca oleracea assessed as injury at 15 g/ha applied at 15 days post-sowing measured after 15 days relative to control; type: functional
[18] = tested on: Chenopodium album; test: Pre-emergence herbicidal activity against Chenopodium album assessed as injury at 50 g/ha applied at 24 hr post-sowing measured after 28 days relative to control; type: functional
[19] = tested on: Ammi majus; test: Post-emergence herbicidal activity against Amni maius assessed as injury at 50 g/ha applied at 15 days post-sowing measured after 15 days relative to control; type: functional
[20] = tested on: Echinochloa crus-galli; test: Post-emergence herbicidal activity against Echinochloa crus-galli (barnyard grass) assessed as injury at 150 g/ha applied at 15 days post-sowing measured after 15 days relative to control; type: functional
[21] = tested on: Digitaria sanguinalis; test: Pre-emergence herbicidal activity against Digitaria sanguinalis (hairy crabgrass) assessed as injury at 150 g/ha applied at 24 hr post-sowing measured after 28 days relative to control; type: functional
[22] = tested on: Matricaria chamomilla; test: Pre-emergence herbicidal activity against Matricaria chamomilla assessed as injury at 150 g/ha applied at 24 hr post-sowing measured after 28 days relative to control; type: functional
[23] = tested on: Brassica napus; test: Phytotoxicity against Brassica napus (oilseed rape) assessed as injury at 50 g/ha applied as pre-emergent treatment at 24 hr post-sowing measured after 28 days relative to control; type: organism-based; settings: in vivo, other, 672 h
[24] = target: T1, Putative protoporphyrinogen IX oxidase (Cucumis sativus) (UniProt C6L817); test: Inhibition of protoporphyrin oxidase in Cucumis sativus (cucumber) cotyledon disc assessed as increase in extraplastidic protoporphyrin 9 accumulation at 100 uM incubated in dim light for 2 hr by HPLC analysis relative to control
T1 sequence (whole entry): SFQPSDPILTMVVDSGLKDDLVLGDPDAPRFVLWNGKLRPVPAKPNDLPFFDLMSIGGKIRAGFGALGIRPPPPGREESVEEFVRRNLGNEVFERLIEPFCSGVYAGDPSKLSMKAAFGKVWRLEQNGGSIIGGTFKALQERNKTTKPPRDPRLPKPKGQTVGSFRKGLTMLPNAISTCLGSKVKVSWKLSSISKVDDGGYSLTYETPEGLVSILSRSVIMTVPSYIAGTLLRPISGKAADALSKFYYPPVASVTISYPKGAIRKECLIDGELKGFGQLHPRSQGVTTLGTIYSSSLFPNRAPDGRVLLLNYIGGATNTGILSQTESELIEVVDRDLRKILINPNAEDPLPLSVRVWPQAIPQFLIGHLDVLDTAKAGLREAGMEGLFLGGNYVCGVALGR

[25] = tested on: Calystegia sepium; test: Pre-emergence herbicidal activity against Calystegia sepium assessed as injury at 50 g/ha applied at 24 hr post-sowing measured after 28 days relative to control; type: functional
[26] = tested on: Glycine max; test: Phytotoxicity against Glycine max (soybean) assessed as injury at 150 g/ha applied as pre-emergent treatment at 24 hr post-sowing measured after 28 days relative to control; type: organism-based; settings: in vivo, other, 672 h
[27] = tested on: Xanthium strumarium; test: Post-emergence herbicidal activity against Xanthium strumarium (cocklebur) assessed as injury at 50 g/ha applied at 15 days post-sowing measured after 15 days relative to control; type: functional
[28] = tested on: Brassica napus; test: Phytotoxicity against Brassica napus (oilseed rape) assessed as injury at 150 g/ha applied as pre-emergent treatment at 24 hr post-sowing measured after 28 days relative to control; type: organism-based; settings: in vivo, other, 672 h
[29] = tested on: Sorghum bicolor; test: Post-emergence herbicidal activity against Sorghum bicolor assessed as injury at 50 g/ha applied at 15 days post-sowing measured after 15 days relative to control; type: functional
[30] = tested on: Echinochloa crus-galli; test: Post-emergence herbicidal activity against Echinochloa crus-galli (barnyard grass) assessed as injury at 50 g/ha applied at 15 days post-sowing measured after 15 days relative to control; type: functional
[31] = tested on: Amaranthus retroflexus; test: Post-emergence herbicidal activity against Amaranthus retroflexus assessed as injury at 150 g/ha applied at 15 days post-sowing measured after 15 days relative to control; type: functional
[32] = tested on: Oryza sativa; test: Phytotoxicity against Oryza sativa (rice) assessed as injury at 150 g/ha applied as pre-emergent treatment at 24 hr post-sowing measured after 28 days relative to control; type: organism-based; settings: in vivo, other, 672 h
[33] = tested on: Stellaria media; test: Post-emergence herbicidal activity against Stellaria media assessed as injury at 150 g/ha applied at 15 days post-sowing measured after 15 days relative to control; type: functional
[34] = tested on: Sorghum bicolor; test: Post-emergence herbicidal activity against Sorghum bicolor assessed as injury at 150 g/ha applied at 15 days post-sowing measured after 15 days relative to control; type: functional

Q: For C#CCOc1cc(-n2nc(C(C)(C)C)sc2=O)c(Cl)cc1Cl, which LD50 [1] is on record?
A: > 4000 mg/kg

Q: And the Activity [2]?
A: 90%

Q: And the Activity [3]?
A: 0%

Q: And the Activity [4]?
A: 30%

Q: What about the solubility [5] of the same compound?
A: 1.1 µg/mL (≈ 3.08 µM)

Q: What about the Activity [6] of the same compound?
A: 0%

Q: What about the Activity [7] of the same compound?
A: 90%

Q: What about the Activity [8] of the same compound?
A: 0%

Q: What about the Activity [9] of the same compound?
A: 90%

Q: What about the Activity [10] of the same compound?
A: 50%

Q: What about the Activity [11] of the same compound?
A: 0%

Q: And the Activity [12]?
A: 50%

Q: And the Activity [13]?
A: 0%

Q: What about the Activity [14] of the same compound?
A: 10%

Q: And the Activity [15]?
A: 0%

Q: What about the Activity [16] of the same compound?
A: 0%

Q: And the Activity [17]?
A: 70%

Q: What about the Activity [18] of the same compound?
A: 70%

Q: What about the Activity [19] of the same compound?
A: 0%

Q: What about the Activity [20] of the same compound?
A: 10%

Q: And the Activity [21]?
A: 90%

Q: What about the Activity [22] of the same compound?
A: 50%

Q: And the Activity [23]?
A: 0%

Q: And the fold change (FC) [24]?
A: 292

Q: And the Activity [25]?
A: 0%

Q: And the Activity [26]?
A: 0%

Q: What about the Activity [27] of the same compound?
A: 10%

Q: And the Activity [28]?
A: 0%

Q: What about the Activity [29] of the same compound?
A: 0%

Q: What about the Activity [30] of the same compound?
A: 0%

Q: What about the Activity [31] of the same compound?
A: 90%

Q: And the Activity [32]?
A: 0%

Q: And the Activity [33]?
A: 0%

Q: What about the Activity [34] of the same compound?
A: 10%
